Measurements reported in patent US20020026052A1, “3-cyanoquinolines, 3-cyano-1,6-naphthyridines, and 3-cyano-1,7-naphthyridines as protein kinase inhibitors” (American Home Products Corporation, priority 2000, published 2002).
Values joined by “and” are separate entries in the source; they are usually repeats but may differ in a detail not shown here. Identical values can stand only once.

Experiments:
Raf1 (c-Raf) = molecular target: T1, Raf1 (c-Raf) (Homo sapiens, UniProt P04049); assay: Raf1 Kinase Cascade Assay; assay type: biochemical
T1 construct: Sf9 insect cell lysate containing full length 6 his-tagged recombinant human c—Raf; 6His; host or cells: Sf9 insect cells (c-Raf, used as lysate); E. coli (GST-MEK1, GST-MAPK)
Method: Raf1 Kinase Cascade Assay Procedure
(Specific Activity: ˜200 U/ml). Human Non-active Mek-1—GST and human GST-MAP kinase (recombinant proteins produced in E. coli).
Stock Solutions Raf Assay:
Assay Dilution Buffer (ADB): 2 OmM MOPS, pH 7.2, 25 mM B-glycerol phosphate, mM EGTA, 1 mM sodium orthovanadate, 1 mM dithiothreitol. Magnesium/ATP Cocktail: 500 AM cold ATP and 75 mM magnesium chloride in ADB.
Active Kinase: Human Active c—Raf: Use at 0.4 U per assay point. Non-active GST-MEK1: Use at 0.1, ug per assay point. Non-active GST-p42 MAP Kinase: Use at 1.0 tg per assay point.
TBST—Tris (50 mM, pH 7.5)-1H-, NaCl (150 mM), Tween-20 (0.05%) Superblock (Pierce) Anti—GST Ab (Pharmacia) Anti-Phospho MAPK (Sigma) Anti-Mouse Ab/Europium conjugate (Wallac)
Assay Procedure: First Stage: c—Raf Dependent Activation of GST-MEK and GST-MAPK Add […] of ADB per assay (i.e. per well of a 96 well plate) Add 10 ml of 0.5 mM cold ATP and 75 mM magnesium chloride in ADB. Add 2 ml of c—Raf (0.4 U/assay), in conjunction with 1.6 ml non-active MEKI (0.4 mg/assay). Add 4 ml of non-active GST-p42 MAP Kinase (1.0 mg/assay). Incubate for 60 minutes at 30° C. in a shaking incubator. Transfer this mixture to an anti—GST Ab coated 96 well plate (Nunc Immunosorb plates coated o/n with a—GST, then blocked with Pierce Superblock). Incubate for 60 minutes at 30° C. in a shaking incubator Wash 3×with TBST, add Anti-Phospho MAPK (Sigma) (1:3000)-1H-Incubate for 60 minutes at 30° C. in a shaking incubator Wash 3×with TBST, add Anti-Mouse Ab/Europium conjugate (Wallac) (1:500)-1H-Incubate for 60 minutes at 30° C. in a shaking incubator Wash 3×with TBST, Read plates in Wallac Victor model Plate Reader. Collect data analyze in Excel for single point and IC50 determinations.
IC50 determinations - done on compounds from single point assays with >80% inhibition. Typically Raf-1 assay is run at compound concentrations from 10 μM to 30 nM in half log dilutions. (% inhibition is determined for each compound concentration).

[1] = tested on: Human adenocarcinoma cell line LoVo; assay: Cell Based Screen for Inhibitors of Raf Kinase, LoVo; conditions: four days incubation, SRB
Method: (§1) Cell Based Screen for Inhibitors of Raf Kinase.
(§2) Cell Lines: Human adenocarcinoma cell line LoVo which is known to be growth inhibited by low nM concentrations of a reference standard inhibitor of Ras and human adenocarcinoma cell line CaCo-2, which is known to be growth resistant to the same reference compound. Cell Media: RPMI 1640 with 10% Fetal Bovine Serum supplemented with L-glutamine and Pennicilin/Streptomycin. Compounds: Supplied usually as a 10 mM stock in 100% DMSO. Normal Saline: 150 mM NaCl Trichloroacetic Acid (TCA): 50% (w/v) in water Sulforhodamine B (SRB): 0.4% (w/v) in 1% Acetic Acid Tris Base: 10 mM in water
(§3) Cells are plated at 2000 cells per well for cell line LoVo and 1500 cells for cell line CaCo-2 in 96 well plates. Cells are plated in media (200 μl) and allowed to adhere overnight at 37 ° C. At 24 hours post plating, compounds are added directly at a volume of 0.5 μl. For the qualitative screen (compounds screened at 25 μM) compound is added directly to cells. For the quantitative screen, compound is first diluted in DMSO to generate concentrations of compound or reference standard of: 1, 5, 10 and 25 μM. It is advisable to make the dilutions in an identical 96 well plate so that compounds may be added using a multichannel micropipettor set at 0.5 μl. The cells are then incubated for four days after which the media is removed using a 12 well manifold by first tipping the plate forward at a 45 degree angle and then inserting the manifold in an upright orientation to prevent the ti
(§4) of the manifold from disturbing cells at the bottom of the plate. 200 μl of normal saline is then added to each well using an 8 well multichannel pipettor, followed by the careful addition of 50 μl of 50% TCA. The plates are then incubated for 2 hours at 4 ° C, after which the supernatant is removed using the same technique as above and the plated washed twice with 200 ul water. The plates are then air dried and 50 μl of SRB stock solution is carefully added so that the entire bottom of each well is covered. This again may be used using an 8 well multichannel pipettor. The SRB is incubated with fixed cells for 15 minutes at room temperature after which the SRB is removed with the manifold as described above and the plates washed twice with 350 μl of 1% acetic acid per well each time.The plates are then air dried after which the bound SRB is released from protein by the addition of 200 µl of Tris base. Resolubilizing the SRB is aided by placing the plates on a rotator for 15-30 minutes. The absorbance of each well is determined at 550 or 562 nm using a microtiter plate reader.
(§5) Each compound or dilution thereof is performed in triplicate. Outliers are identified by visual inspection of the data. Each plate should have a “0” control (vehicle only). […] Quantitative Assay: A standard curve is constructed by plotting the concentration of compound against the average absorbance calculated at that concentration. A curve is plotted and the concentration at which the curve passes through the 50% the absorbance mark seen in the “0” control well is the IC50 calculated for that compound. Multiple entries for a given compound indicate that it was tested multiple times.

[2] = tested on: human adenocarcinoma cell line CaCo-2; assay: Cell Based Screen for Inhibitors of Raf Kinase, CaCo-2; conditions: four days incubation, SRB
Method: as §1, §2, §3, §4, §5

Row | Compound | IC50 (Raf1 (c-Raf)) | IC50 [1] [nM] | IC50 [2] [nM] | melting point [°C] | IC50 ([1]; Homo sapiens, LoVo, 96 h) [nM] | IC50 ([2]; Homo sapiens, Caco-2, 96 h) [nM]
1 | Cn1ccnc1Sc1ccc(Nc2c(C#N)cnc3cc(-c4ccc(N5CCCCC5)nc4)ccc23)cc1Cl [Example 211, 4-({3-Chloro-4-[(1-methyl-iH-imidazol-2-yl)sulfanyl]phenyl}amino)-7-[6-(1-piperidinyl)-3-pyridinyl]-3-quinolinecarbonitrile] | 6 nM | 5.3 | > 1000 |  |  | 
2 | Cn1ccnc1Sc1ccc(Nc2c(C#N)cnc3cc(-c4cnc(N5CCOCC5)nc4)ccc23)cc1Cl [Example 191, 4-{3-Chloro-4-[(1-methyl-1H-imidazol-2-yl)sulfanyl]anilino}-7-[2-(4-morpholinyl)-5-pyrimidinyl]-3-quinolinecarbonitrile] | 1 nM |  |  | > 250 | 30 | > 10000
3 | Cn1ccnc1Sc1ccc(Nc2c(C#N)cnc3cc(-c4ccc(CN5CCNCC5)cc4)ccc23)cc1Cl [Example 97, 4-({3-chloro-4-[(1-methylimidazol-2-yl)sulfanyl]phenyl}amino)-7-[4-(1-piperazinylmethyl)phenyl]-3-quinolinecarbonitrile] | 16 nM |  |  | 140 to 142 | 33 | > 1000
4 | Cn1ccnc1Sc1ccc(Nc2c(C#N)cnc3cc(-c4ccc(CN5CCOCC5)cc4)ccc23)cc1Cl [Example 138, 4-({3-Chloro-4-[(1-methyl-lH-imidazol-2-yl)sulfanyl]phenyl}amino)-7-{4-[(4-morpholinyl)methyl]phenyl}-3-quinolinecarbonitrile] | 5.6 nM | 6.2 | 810 |  |  | 
5 | Cn1ccnc1Sc1ccc(Nc2c(C#N)cnc3cc(-c4csc(CN5CCOCC5)c4)ccc23)cc1Cl [Example 33, 4-{3-chloro-4-[(1-methyl-1H-imidazol-2-yl)sulfanyl]anilino}-7-[5-(4-morpholinylmethyl)-3-thienyl]-3-quinolinecarbonitrile] | 6 nM |  |  | 110 to 113 | 6 | 
6 | 4-{3-Chloro-4-[(1-methyl-1H-imidazol-2-yl) sulfanyl]anilino }-7-{5-[(4-ethyl-1-piperazinyl) methyl]-2-furyl }-3-quinolinecarbonitrile [Example 156] | 9 nM and 12 nM | 5.6 | 1000 |  |  | 
7 | 4-({3-Chloro-4-[(1-methyl-1H-imidazol-2-yl) sulfanyl]phenyl }amino)-7-[5-(1-pyridinyl]-3-quinolinecarbonitrile [Example 180] | 3.7 nM | 5.6 | 930 |  |  | 
8 | Cn1ccnc1Sc1ccc(Nc2c(C#N)cnc3cc(-c4ccc(CN5CCCCC5)cc4)ccc23)cc1Cl [Example 136, 4-{3-Chloro-4-[(1-methyl-IH-imidazol-2-yl)sulfanyl]anilino}-7-[4-(1-piperidinylmethyl)phenyl]-3-quinolinecarbonitrile] | 2.5 nM and 1.8 nM |  |  | 158 to 160 | 11 | > 1000
